We go through 29 compounds from patent US9637473B2, “Acrylamide derivatives as antimalarial agents” (priority 2013, dated 2017).

Where a name gives a salt, the structure may show the parent alone.

For one assay, the system named is P. Falciparum NF54. In words: Plasmodium falciparum in vitro assay ([3H]-hypoxanthine incorporation). Particulars: P. Falciparum NF54, erythrocytic stages in human red blood cells, 50% human serum. Format: cell-based. Put shortly:
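This in vitro antimalarial assay used P. falciparum erythrocytic stages cultured in human erythrocytes and measured [3H]-hypoxanthine incorporation. Radioactivity on the dried filters, placed in plastic foil with 10 mL scintillation fluid, was counted in a Betaplate liquid scintillation counter. Sigmoidal inhibition curves built in Microsoft Excel gave the IC50.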
As a reminder, the IC50 is the concentration that gives 50% inhibition. The low end stands for higher potency, the high end for lower potency. The compound `CN1CCC(N2C[C@H]3CC(N(Cc4ccc(N(C)c5ccncc5)cc4)C(=O)/C=C/c4ccc(C(F)(F)F)cc4)C[C@H]3C2)CC1` (single isomer, unassigned) [Example 64] yielded an IC50 of 12 nM.

The same assay, now with this note: Plasmodium falciparum, Erythrocyte, P. Falciparum NF54, erythrocytic stages in human red blood cells, 50% human serum.
`CC(C)N1CCC(N(Cc2cccc(Nc3ccncn3)c2)C(=O)/C=C/c2ccc(C(F)(F)F)cc2)CC1` [Example 125, (E)-N-(1-Isopropyl-piperidin-4-yl)-N-[3-(pyrimidin-4-ylamino)-benzyl]-3-(4-trifluoromethyl-phenyl)-acrylamide formate] gave an IC50 of 340 nM.

In the case of `Cc1cc(Nc2cncc(CN(C(=O)/C=C/c3ccc(C(F)(F)F)cc3)C3CCN(C(C)C)CC3)c2)ccn1` [Example 136, (E)-N-(1-Isopropyl-piperidin-4-yl)-N-[5-(2-methyl-pyridin-4-ylamino)-pyridin-3-ylmethyl]-3-(4-trifluoromethyl-phenyl)-acrylamide formate], the IC50 worked out at 80 nM. The compound `CN(c1ccncc1)c1ccc(CN(C(=O)/C=C/c2cccc(Cl)c2)C2CCN(Cc3ccccc3)CC2)cc1` [Example 153, (E)-N-(1-Benzyl-piperidin-4-yl)-3-(3-chloro-phenyl)-N-[4-(methyl-pyridin-4-yl-amino)-benzyl]-acrylamide] returned an IC50 of 87 nM.

Turning to `COc1ccc2nccc(Nc3ccc(CN(C(=O)/C=C/c4ccc(C(F)(F)F)cc4)C4CCN(C5CCCC5)CC4)cc3)c2c1` [Example 88, (E)-N-(1-Cyclopentyl-piperidin-4-yl)-N-[4-(6-methoxy-quinolin-4-ylamino)-benzyl]-3-(4-trifluoromethyl-phenyl)-acrylamide], the IC50 worked out at 21 nM. Same read-out and setting: the same measure for `Cc1cc(Nc2ccc(CN(C(=O)/C=C/c3ccc(C(F)(F)F)cc3)C3CCN(Cc4nc(C)cs4)CC3)cc2)ccn1` [Example 42, (E)-N-[4-(2-Methyl-pyridin-4-ylamino)-benzyl]-N-[1-(4-methyl-thiazol-2-ylmethyl)-piperidin-4-yl]-3-(4-trifluoromethyl-phenyl)-acrylamide]: 343 nM; for `CN1CCC(N2CCC(N(Cc3ccc(N(C)c4ccncc4)cc3)C(=O)/C=C/c3ccc(C(F)(F)F)cc3)CC2)CC1` [Example 26, (E)-N-(1′-Methyl-[1,4′]bipiperidinyl-4-yl)-N-[4-(methyl-pyridin-4-yl-amino)-benzyl]-3-(4-trifluoromethyl-phenyl)-acrylamide]: 14 nM; for `CC(C)N1CCC(N(Cc2cccc(Nc3ccncc3F)c2)C(=O)/C=C/c2ccc(C(F)(F)F)cc2)CC1` [Example 124, (E)-N-[3-(3-Fluoro-pyridin-4-ylamino)-benzyl]-N-(1-isopropyl-piperidin-4-yl)-3-(4-trifluoromethyl-phenyl)-acrylamide formate]: 303 nM. Take `CN1CCC(N2CCC[C@@H](N(Cc3ccc(N(C)c4ccncc4)cc3)C(=O)/C=C/c3ccc(C(F)(F)F)cc3)C2)CC1` [Example 56, (R,E)-N-(4-(methyl(pyridin-4-yl)amino)benzyl)-N-(1′-methyl-[1,4′-bipiperidin]-3-yl)-3-(4-(trifluoromethyl)phenyl)acrylamide]: the 50% inhibitory concentration (IC50) is 11 nM. Still for that read-out and setting: the same measure for `CC(C)N1CCC(N(Cc2cncc(Nc3ccncc3F)c2)C(=O)/C=C/c2ccc(C(F)(F)F)cc2)CC1` [Example 138, (E)-N-[5-(3-Fluoro-pyridin-4-ylamino)-pyridin-3-ylmethyl]-N-(1-isopropyl-piperidin-4-yl)-3-(4-trifluoromethyl-phenyl)-acrylamide formate]: 344 nM; for `CC(C)CCN1CCCC(N(Cc2ccc(N(C)c3ccncc3)cc2)C(=O)/C=C/c2ccc(C(F)(F)F)cc2)CC1` (racemic) [Example 63, (±)-(E)-N-(1-isopentylazepan-4-yl)-N-(4-(methyl(pyridin-4-yl)amino)benzyl)-3-(4-(trifluoromethyl)phenyl)acrylamide]: 85 nM.

The compound `CN(c1ccncc1)c1ccc(CN(C(=O)/C=C/c2ccc(C(F)(F)F)cc2)[C@H]2CC[C@H](N3CCCC3)CC2)cc1` [Example 193, (±)-trans-(E)-N-[4-(Methyl-pyridin-4-yl-amino)-benzyl]-N-(4-pyrrolidin-1-yl-cyclohexyl)-3-(4-trifluoromethyl-phenyl)-acrylamide] had an IC50 of 49 nM.

In turn, `Cc1cc(Nc2ccc(CN(CCCN(C)C)C(=O)/C=C/c3ccc(C(F)(F)F)cc3)cc2)ccn1` [Example 166, (E)-N-(3-Dimethylamino-propyl)-N-[4-(2-methyl-pyridin-4-ylamino)-benzyl]-3-(4-trifluoromethyl-phenyl)-acrylamide] registered an IC50 of 68 nM. `CCCOc1ccc(/C=C/C(=O)N(Cc2ccc(N(C)c3ccncc3)cc2)C2CCN(Cc3ccccc3)CC2)cc1` [Example 148, (E)-N-(1-Benzyl-piperidin-4-yl)-N-[4-(methyl-pyridin-4-yl-amino)-benzyl]-3-(4-propoxy-phenyl)-acrylamide] showed an IC50 of 61 nM. The IC50 values of the last two compounds are within 1.5-fold of each other.

In turn, `Cc1cc(Nc2ccc(CN(C(=O)/C=C/c3ccc(C(F)(F)F)cc3)C3CCN(Cc4ncccn4)CC3)cc2)ccn1` [Example 47, (E)-N-[4-(2-Methyl-pyridin-4-ylamino)-benzyl]-N-(1-pyrimidin-2-ylmethyl-piperidin-4-yl)-3-(4-trifluoromethyl-phenyl)-acrylamide] returned a 50% inhibitory concentration (IC50) of 345 nM. Same read-out and setting: the result for `CN(c1ccncc1)c1ccc(CN(C(=O)/C=C/c2ccc(C(F)(F)F)nc2)C2CCN(Cc3ccccc3)CC2)cc1` [Example 161, (E)-N-(1-Benzyl-piperidin-4-yl)-N-[4-(methyl-pyridin-4-yl-amino)-benzyl]-3-(6-trifluoromethyl-pyridin-3-yl)-acrylamide] reads 58 nM. On the same count and under the same terms, the same measure for `CN(c1ccncc1)c1ccc(CN(C(=O)/C=C/c2ccc(C(F)(F)F)cc2)C2CCN(Cc3ccccc3)CC2)cc1` [Example 6, (E)-N-(1-Benzyl-piperidin-4-yl)-N-[4-(methyl-pyridin-4-yl-amino)-benzyl]-3-(4-trifluoromethyl-phenyl)-acrylamide]: 58 nM.

The compound `Cc1cc(Nc2ccc(CN(C(=O)/C=C/c3ccc(C(F)(F)F)cc3)C3CCN(Cc4ccccc4)CC3)cc2)ccn1` [Example 37, (E)-N-(1-Benzyl-piperidin-4-yl)-N-[4-(2-methyl-pyridin-4-ylamino)-benzyl]-3-(4-trifluoromethyl-phenyl)-acrylamide] had an IC50 of 51 nM. Still for that read-out and setting: the result for `CN(c1ccncc1)c1ccc(CN(C(=O)/C=C/c2ccc(C(F)(F)F)cc2)C2CC3(C2)CN(C2CCCC2)C3)cc1` [Example 74, (E)-N-(2-cyclopentyl-2-azaspiro[3.3]heptan-6-yl)-N-(4-(methyl(pyridin-4-yl)amino)benzyl)-3-(4-(trifluoromethyl)phenyl)acrylamide] reads 41 nM; that for `CN(c1ccncc1)c1ccc(CN(CC2CCN(C3CCCC3)CC2)C(=O)/C=C/c2ccc(C(F)(F)F)cc2)cc1` [Example 188, (E)-N-(1-Cyclopentyl-piperidin-4-ylmethyl)-N-[4-(methyl-pyridin-4-yl-amino)-benzyl]-3-(4-trifluoromethyl-phenyl)-acrylamide], 40 nM. The same measure, in the same setting: the result for `CN(c1ccncc1)c1ccc(CN(C(=O)/C=C/c2ccc(C(F)(F)F)cc2)C2CCN(C3CCCC3)CC2)cn1` [Example 104, (E)-N-(1-Cyclopentyl-piperidin-4-yl)-N-[6-(methyl-pyridin-4-yl-amino)-pyridin-3-ylmethyl]-3-(4-trifluoromethyl-phenyl)-acrylamide] reads 60 nM; that for `Cc1c(/C=C/C(=O)N(Cc2ccc(N(C)c3ccncc3)cc2)C2CCN(Cc3ccccc3)CC2)cnn1C` [Example 164, (E)-N-(1-Benzyl-piperidin-4-yl)-3-(1,5-dimethyl-1H-pyrazol-4-yl)-N-[4-(methyl-pyridin-4-yl-amino)-benzyl]-acrylamide], 368 nM. In turn, `CN1CCC(N2CCC(N(Cc3ccc(N(C)c4ccncc4)cc3)C(=O)/C=C/c3ccc(OC(F)F)cc3)CC2)CC1` [Example 181, (E)-3-(4-Difluoromethoxy-phenyl)-N-(1′-methyl-[1,4′]bipiperidinyl-4-yl)-N-[4-(methyl-pyridin-4-yl-amino)-benzyl]-acrylamide] showed an IC50 of 36 nM. On the same count and under the same terms, the same measure for `Cc1ccc(/C=C/C(=O)N(Cc2ccc(N(C)c3ccncc3)cc2)C2CCN(Cc3ccccc3)CC2)cc1` [Example 158, (E)-N-(1-Benzyl-piperidin-4-yl)-N-[4-(methyl-pyridin-4-yl-amino)-benzyl]-3-p-tolyl-acrylamide]: 190 nM. Take `CN(c1ccncc1)c1ccc(CN(C(=O)/C=C/c2ccc(OC(F)(F)F)cc2)C2CCN(Cc3ccccc3)CC2)cc1` [Example 146, (E)-N-(1-Benzyl-piperidin-4-yl)-N-[4-(methyl-pyridin-4-yl-amino)-benzyl]-3-(4-trifluoromethoxy-phenyl)-acrylamide]: 48 nM corresponded to half-maximal inhibition (IC50). Same read-out and setting: the result for `CN(c1ccncc1)c1ccc(CN(C(=O)/C=C/c2ccc(C(F)(F)F)cc2)[C@@H]2CCN(C3CCCC3)C[C@H]2F)cc1` (racemic) [Example 80, (±)-(E)-N-(trans-1-cyclopentyl-3-fluoropiperidin-4-yl)-N-(4-(methyl(pyridin-4-yl)amino)benzyl)-3-(4-(trifluoromethyl)phenyl)acrylamide] reads 105 nM. On the same count and under the same terms, the result for `COc1ccc(/C=C/C(=O)N(Cc2ccc(N(C)c3ccncc3)cc2)C2CCN(Cc3ccccc3)CC2)cc1` [Example 149, (E)-N-(1-Benzyl-piperidin-4-yl)-3-(4-methoxy-phenyl)-N-[4-(methyl-pyridin-4-yl-amino)-benzyl]-acrylamide] reads 181 nM. For the compound `COc1ccc2nc(C)cc(Nc3ccc(CN(C(=O)/C=C/c4ccc(C(F)(F)F)cc4)C4CCN(C5CCCC5)CC4)cc3)c2c1` [Example 100, (E)-N-(1-Cyclopentyl-piperidin-4-yl)-N-[4-(6-methoxy-2-methyl-quinolin-4-ylamino)-benzyl]-3-(4-trifluoromethyl-phenyl)-acrylamide], the concentration for half-maximal inhibition (IC50) is 21 nM. This IC50 is about 8.6-fold lower than that of the compound before. Consider `COc1ccccc1/C=C/C(=O)N(Cc1ccc(N(C)c2ccncc2)cc1)C1CCN(Cc2ccccc2)CC1` [Example 151, (E)-N-(1-Benzyl-piperidin-4-yl)-3-(2-methoxy-phenyl)-N-[4-(methyl-pyridin-4-yl-amino)-benzyl]-acrylamide], for which 222 nM corresponded to half-maximal inhibition (IC50).
